What is called half-life is how long it takes for the measured level to halve.

Numbered stars: 1 amine (or outer) side, 2 acyl side, 3 side chain; on linkers, the order of the positions; unused ones are H or OH. Side chains are listed from the residue outwards. Peptide text beside a SMILES is read from it. * marks the point of attachment. C18 diacid = O=C(O)CCCCCCCCCCCCCCCCC(=O)*; γGlu = O=C(O)[C@H](CCC(=O)[*:2])N[*:1]; AEEA = NCCOCCOCC(=O)O

This data set is described as follows: Assay (II) PK i.v. minipig, in vivo half-life. The conditions noted are these: male, Göttingen, minipig, iv, Half-life minipig, Assay (II). More on the design: species or system Göttingen mini-pigs. As for the experimental part:
An assay useful for measuring the pharmacokinetic (PK) profile of the PP peptide is the following mini-pig PK assay.
Five male Göttingen mini-pigs weighing approximately 18 to 22 kg from Ellegaard Göttingen Minipigs NS, Denmark are included in the study. The mini-pigs have two central venous catheters inserted which are used for intra venous (i.v.) dosing and blood sampling. The test compound is dissolved in 50 mM K2HPO4, 0.05% tween 80, pH=8.0 to a concentration of 180 nmol/ml. For comparison a control compound, such as human PP(1-36), may be administered. The pigs are dosed with 6 nmol test compound/kg body weight. Blood samples are taken at the following time points: pre-dose, 30 minutes, 1, 2, 4, 8, 24, 48, 72, 96, 120, 168 and 240 hours post dosing. The blood samples were collected into test tubes containing EDTA buffer for stabilization and kept on ice for max. 20 minutes before centrifugation. The centrifugation procedure to separate plasma may be: 4° C., approx. 2500 g for 10 minutes. Plasma is collected and immediately transferred to Micronic tubes stored at −20° C. until assayed.
The test compounds were assayed in plasma by Turbulent Flow Chromatography coupled to Liquid Chromatography with subsequent Tandem Mass Spectrometric Detection (TFC/LC/MS/MS). Positive mode ionization and Multiple Reaction Monitoring (MRM) of a multiple protonated species fragmented to a singly charged ion was employed for selectivity. The selectivity of the method allows multiple compounds to be quantified in one sample.
The concentrations of the test compound in samples of unknown concentration were calculated using the peak area as a function of amount. Calibration graphs based on plasma samples spiked with the analyte were constructed by regression analysis. Typical dynamic range for standard assay was 1-2000 nmol/I. The method performance was assured by co-assaying quality control (QC) samples in duplicate at three concentration levels.
Stock and working solutions of analytes were prepared in plasma and incubated by 37° C. for 1 hour.
Sample Preparation: 40.0 μl EDTA-plasma was added 160 μl 50% methanol, 1% formic acid, then vortexed and centrifuged at 16457 g at 4° C. for 20 minutes. The supernatant was transferred to a 96 well plate, plates incubated with 0.4% BSA, 37° C. for ½ hour. Injection volume was 25 μl.
The analysis was carried out on a Sciex API 3000 mass spectrometer (MDS/Sciex, Concord, ON, Canada) using a TurbolonSpray interface. The TFC/LC system consisted of two Flux Rheos 2000 quaternary pumps, a Cohesive VIM module (Cohesive Technologies, Franklin, Mass., USA) and a CTC LC/PAL auto sampler (CTC Analytics, Zingen, Switzerland). The centrifuge employed was a HettichMikro 22R (A. Hettich, Tuttlingen, Germany). For sample clean up a TurboFlow C8 column (0.5×50 mm) (Cohesive Technologies/Thermofisher) was used and the LC separation was done on a Proteo 4 μm column (2.0×50 mm) (Phenomenex, Torrance, Calif., USA). Eluents were isocratic and gradient combinations of methanol, acetonitril, Milli-Q water and formic acid.
Non-compartmental analysis (NCA): Plasma concentration-time profiles are analyzed by non-compartmental pharmacokinetics analysis (NCA) using WinNonlin Professional 5.0 (Pharsight Inc., Mountain View, Calif., USA). NCA is performed using the individual plasma concentration-time profiles from each animal.
As to `CC[C@H](C)[C@H](NC(=O)[C@H](Cc1ccc(O)cc1)NC(=O)[C@H](CCCNC(=N)N)NC(=O)[C@H](CCCNC(=N)N)NC(=O)[C@H](CC(C)C)NC(=O)[C@H](CC(=O)O)NC(=O)[C@H](C)NC(=O)[C@H](C)NC(=O)[C@H](Cc1ccc(O)cc1)NC(=O)[C@H](CCC(N)=O)NC(=O)[C@H](C)NC(=O)[C@H](CCSC)NC(=O)[C@H](CCC(N)=O)NC(=O)[C@H](CCC(=O)O)NC(=O)[C@@H]1CCCN1C(=O)[C@@H](NC(=O)[C@H](C)NC(=O)[C@H](CC(N)=O)NC(=O)[C@H](CC(=O)O)NC(=O)CNC(=O)[C@@H]1CCCN1C(=O)[C@H](Cc1ccc(O)cc1)NC(=O)[C@@H](NC(=O)[C@@H]1CCCN1C(=O)[C@H](CCC(=O)O)NC(=O)[C@@H](N)CC(C)C)C(C)C)[C@@H](C)O)C(=O)N[C@@H](CC(N)=O)C(=O)N[C@@H](CCSC)C(=O)N[C@@H](CC(C)C)C(=O)N[C@H](C(=O)N[C@@H](CCCCNC(=O)COCCOCCNC(=O)COCCOCCNC(=O)CC[C@H](NC(=O)CCCCCCCCCCCCCCCCC(=O)O)C(=O)O)C(=O)N1CCC[C@H]1C(=O)N[C@@H](CCCNC(=N)N)C(=O)N[C@@H](Cc1ccc(O)cc1)C(N)=O)[C@@H](C)O` [AI] (H-LEPVYPGDNATPEQMAQYAADLRRYINMLTK([AEEA-AEEA-γGlu-C18 diacid])PRY-NH2; N-terminus and C-terminus assumed), the half-life was 45 h. The figure for `CC[C@H](C)[C@H](NC(=O)[C@H](Cc1ccc(O)cc1)NC(=O)[C@H](CCCNC(=N)N)NC(=O)[C@H](CCCNC(=N)N)NC(=O)[C@H](CC(C)C)NC(=O)[C@H](CC(=O)O)NC(=O)[C@H](C)NC(=O)[C@H](C)NC(=O)[C@H](Cc1ccc(O)cc1)NC(=O)[C@H](CCC(N)=O)NC(=O)[C@H](C)NC(=O)[C@H](CCSC)NC(=O)[C@H](CCC(N)=O)NC(=O)[C@H](CCC(=O)O)NC(=O)[C@@H]1CCCN1C(=O)[C@@H](NC(=O)[C@H](C)NC(=O)[C@H](CC(N)=O)NC(=O)[C@H](CC(=O)O)NC(=O)CNC(=O)[C@@H]1CCCN1C(=O)[C@H](Cc1ccc(O)cc1)NC(=O)[C@@H](NC(=O)[C@@H]1CCCN1C(=O)[C@H](CCCCNC(=O)COCCOCCNC(=O)COCCOCCNC(=O)CC[C@H](NC(=O)CCCCCCCCCCCCCCCCC(=O)O)C(=O)O)NC(=O)[C@@H](N)CC(C)C)C(C)C)[C@@H](C)O)C(=O)N[C@@H](CC(N)=O)C(=O)N[C@@H](CCSC)C(=O)N[C@@H](CC(C)C)C(=O)N[C@H](C(=O)N[C@@H](CCCNC(=N)N)C(=O)N1CCC[C@H]1C(=O)N[C@@H](CCCNC(=N)N)C(=O)N[C@@H](Cc1ccc(O)cc1)C(N)=O)[C@@H](C)O` [BL] is 52 h; for `CC[C@H](C)[C@H](NC(=O)[C@H](Cc1ccc(O)cc1)NC(=O)[C@H](CCCNC(=N)N)NC(=O)[C@H](CCCNC(=N)N)NC(=O)[C@H](CC(C)C)NC(=O)[C@H](CC(=O)O)NC(=O)[C@H](C)NC(=O)[C@H](C)NC(=O)[C@H](Cc1ccc(O)cc1)NC(=O)[C@H](CCC(N)=O)NC(=O)[C@H](C)NC(=O)[C@H](CCSC)NC(=O)[C@H](CCC(N)=O)NC(=O)[C@H](CCC(=O)O)NC(=O)[C@@H]1CCCN1C(=O)[C@@H](NC(=O)[C@H](C)NC(=O)[C@H](CC(N)=O)NC(=O)[C@H](CC(=O)O)NC(=O)CNC(=O)[C@@H]1CCCN1C(=O)[C@H](CCCCNC(=O)COCCOCCNC(=O)COCCOCCNC(=O)CC[C@H](NC(=O)CCCCCCCCCCCCCCCCC(=O)O)C(=O)O)NC(=O)[C@@H](NC(=O)[C@@H]1CCCN1C(=O)[C@H](CCC(=O)O)NC(=O)[C@H](CC(C)C)NC(=O)[C@@H]1CCCN1)C(C)C)[C@@H](C)O)C(=O)N[C@@H](CC(N)=O)C(=O)N[C@@H](CCSC)C(=O)N[C@@H](CC(C)C)C(=O)N[C@H](C(=O)N[C@@H](CCCNC(=N)N)C(=O)N1CCC[C@H]1C(=O)N[C@@H](CCCNC(=N)N)C(=O)N[C@@H](Cc1ccc(O)cc1)C(N)=O)[C@@H](C)O` [Compound AA] it is 17 h; for `CC[C@H](C)[C@H](NC(=O)[C@H](Cc1ccc(O)cc1)NC(=O)[C@H](CCCNC(=N)N)NC(=O)[C@H](CCCNC(=N)N)NC(=O)[C@H](CC(C)C)NC(=O)[C@H](CC(=O)O)NC(=O)[C@H](C)NC(=O)[C@H](C)NC(=O)[C@H](Cc1ccc(O)cc1)NC(=O)[C@H](CCC(N)=O)NC(=O)[C@H](C)NC(=O)[C@H](CCSC)NC(=O)[C@H](CCC(N)=O)NC(=O)[C@H](CCC(=O)O)NC(=O)[C@@H]1CCCN1C(=O)[C@@H](NC(=O)[C@H](C)NC(=O)[C@H](CC(N)=O)NC(=O)[C@H](CC(=O)O)NC(=O)CNC(=O)[C@@H]1CCCN1C(=O)[C@H](Cc1ccc(O)cc1)NC(=O)[C@H](CCCCNC(=O)COCCOCCNC(=O)COCCOCCNC(=O)CC[C@H](NC(=O)CCCCCCCCCCCCCCCCC(=O)O)C(=O)O)NC(=O)[C@@H]1CCCN1C(=O)[C@H](CCC(=O)O)NC(=O)[C@H](CC(C)C)NC(=O)[C@@H]1CCCN1)[C@@H](C)O)C(=O)N[C@@H](CC(N)=O)C(=O)N[C@@H](CCSC)C(=O)N[C@@H](CC(C)C)C(=O)N[C@H](C(=O)N[C@@H](CCCNC(=N)N)C(=O)N1CCC[C@H]1C(=O)N[C@@H](CCCNC(=N)N)C(=O)N[C@@H](Cc1ccc(O)cc1)C(N)=O)[C@@H](C)O` [Compound AB] it is 44 h. Regarding `CC[C@H](C)[C@H](NC(=O)[C@H](Cc1ccc(O)cc1)NC(=O)[C@H](CCCNC(=N)N)NC(=O)[C@H](CCCNC(=N)N)NC(=O)[C@H](CC(C)C)NC(=O)[C@H](CC(=O)O)NC(=O)[C@H](C)NC(=O)[C@H](C)NC(=O)[C@H](Cc1ccc(O)cc1)NC(=O)[C@H](CCC(N)=O)NC(=O)[C@H](C)NC(=O)[C@H](CCSC)NC(=O)[C@H](CCC(N)=O)NC(=O)[C@H](CCC(=O)O)NC(=O)[C@@H]1CCCN1C(=O)[C@@H](NC(=O)[C@H](C)NC(=O)[C@H](CC(N)=O)NC(=O)[C@H](CC(=O)O)NC(=O)CNC(=O)[C@@H]1CCCN1C(=O)[C@H](Cc1ccc(O)cc1)NC(=O)[C@@H](NC(=O)[C@H](CCCCNC(=O)COCCOCCNC(=O)COCCOCCNC(=O)CC[C@H](NC(=O)CCCCCCCCCCCCCCCCC(=O)O)C(=O)O)NC(=O)[C@H](CCC(=O)O)NC(=O)[C@H](CC(C)C)NC(=O)[C@@H]1CCCN1)C(C)C)[C@@H](C)O)C(=O)N[C@@H](CC(N)=O)C(=O)N[C@@H](CCSC)C(=O)N[C@@H](CC(C)C)C(=O)N[C@H](C(=O)N[C@@H](CCCNC(=N)N)C(=O)N1CCC[C@H]1C(=O)N[C@@H](CCCNC(=N)N)C(=O)N[C@@H](Cc1ccc(O)cc1)C(N)=O)[C@@H](C)O` [Compound AC], the half-life was 11 h. The figure for `CC[C@H](C)[C@H](NC(=O)[C@H](Cc1ccc(O)cc1)NC(=O)[C@H](CCCNC(=N)N)NC(=O)[C@H](CCCNC(=N)N)NC(=O)[C@H](CC(C)C)NC(=O)[C@H](CC(=O)O)NC(=O)[C@H](C)NC(=O)[C@H](C)NC(=O)[C@H](Cc1ccc(O)cc1)NC(=O)[C@H](CCC(N)=O)NC(=O)[C@H](C)NC(=O)[C@H](CCSC)NC(=O)[C@H](CCC(N)=O)NC(=O)[C@H](CCC(=O)O)NC(=O)[C@@H]1CCCN1C(=O)[C@@H](NC(=O)[C@H](C)NC(=O)[C@H](CC(N)=O)NC(=O)[C@H](CC(=O)O)NC(=O)CNC(=O)[C@@H]1CCCN1C(=O)[C@H](Cc1ccc(O)cc1)NC(=O)[C@@H](NC(=O)[C@@H]1CCCN1C(=O)[C@H](CCCCNC(=O)COCCOCCNC(=O)COCCOCCNC(=O)CC[C@H](NC(=O)CCCCCCCCCCCCCCCCC(=O)O)C(=O)O)NC(=O)[C@H](CC(C)C)NC(=O)[C@@H]1CCCN1)C(C)C)[C@@H](C)O)C(=O)N[C@@H](CC(N)=O)C(=O)N[C@@H](CCSC)C(=O)N[C@@H](CC(C)C)C(=O)N[C@H](C(=O)N[C@@H](CCCNC(=N)N)C(=O)N1CCC[C@H]1C(=O)N[C@@H](CCCNC(=N)N)C(=O)N[C@@H](Cc1ccc(O)cc1)C(N)=O)[C@@H](C)O` [Compound AD] is 52 h.

Source of the values: patent US20150141336A1, “Pancreatic Peptide Compounds and Use” (Novo Nordisk A/S, priority 2012, published 2015).
